In paper PMC9897792, “Discovery of novel 2-(4-(benzyloxy)-5-(hydroxyl) phenyl) benzothiazole derivatives as multifunctional MAO-B inhibitors for the treatment of Parkinson’s disease” (Journal of Enzyme Inhibition and Medicinal Chemistry, 2023):
“And” between values parts separate entries of the source, which are not always exact repeats. Equal values may be shown once.

Assays:
[1] = Oxygen radical absorbance capacity assay with fluorescein (ORAC-FL); conditions: Trolox as standard
Experimental: Oxygen radical absorbance capacity assay which used fluorescein (ORAC-FL) was performed to measure the antioxidant activities of 2-(4-(benzyloxy)-5-(hydroxyl) phenyl) benzothiazole derivatives. […] It reflected that introduction of alkyl substituents on benzyloxy ring was more beneficial for the improvement of in vitro antioxidant activity. However, the position and number of substituents seem to have little influence on the antioxidative activities.
Test compounds solution (20 µL, 10 µM) and fluorescein solution (120 µL, 250 nM) were added to a black 96-wells plate in order. The mixture was incubated for 15 min at 37 °C. Then, AAPH solution (60 µL, 40 mM) was added through an automatic sampler. The fluorescence was recorded with excitation and emission wavelengths at 485 and 535 nm on the multifunctional enzyme marker (Thermo Scientific), and the area under the curve (AUC) was calculated automatically. Trolox was used as a reference, and the antioxidant activities of the compounds were expressed as Trolox equivalent. The test compound solution was replaced with PBS (20 µL) in blank well. The antioxidant activities of the test compounds were calculated by the formula: [(AUCsample − AUCblank)/(AUCtrolox − AUCblank)] × [(Trolox concentration/test sample concentration)].

[2] = test system: TNF-α production in LPS-activated BV-2 microglia cells; test: LPS-induced TNF-α production in BV-2 cells (ELISA); type: cell-based; conditions: Mus musculus, LPS 1.0 µg/mL, read-out: inhibition rate of LPS-induced TNF-α production
Experimental: ELISA method was carried out to detect the inhibitory effects of 3h on LPS-induced TNF-α production. As shown in Figure 8(B), the level of TNF-α expression was dramatically raised when BV-2 cells were exposed to LPS (1.0 µg/mL).
ELISA and Griess reaction methods were performed to detect the inhibitory effect of 3h on the release of TNF-α and NO in LPS-stimulated BV-2 cells[46]^,[47]. BV-2 cells in the logarithmic phase were seeded into 96-well cell culture plate, and these cells were incubated at 37 °C for 24 h at the atmosphere of 5% CO2. After incubation, the culture solution was replaced by fresh one (90 µL without serum), and test compound solution (10 µL) was added. After addition, the plate was incubated for 30 min, then LPS (10 µL, 1.0 µg/ml in PBS) was added to each well, and the mixture would be incubated for another 24 h at 37 °C. After the final incubation, the supernatants were taken out to measure the level of TNF-α and NO according to the procedures depicted on the kits (kits were purchased from Nanjing Jiancheng Bioengineering Institute).

MAO-A = target: T1, MAO-A (Homo sapiens, UniProt P21397); test: MAO-A inhibition, kynuramine method; type: biochemical; conditions: at the concentration of 10.0 μM; n.a. = no active, percent inhibition <5.0%; read-out: %Inhibition MAO-A
T1 sequence (P21397 1-527): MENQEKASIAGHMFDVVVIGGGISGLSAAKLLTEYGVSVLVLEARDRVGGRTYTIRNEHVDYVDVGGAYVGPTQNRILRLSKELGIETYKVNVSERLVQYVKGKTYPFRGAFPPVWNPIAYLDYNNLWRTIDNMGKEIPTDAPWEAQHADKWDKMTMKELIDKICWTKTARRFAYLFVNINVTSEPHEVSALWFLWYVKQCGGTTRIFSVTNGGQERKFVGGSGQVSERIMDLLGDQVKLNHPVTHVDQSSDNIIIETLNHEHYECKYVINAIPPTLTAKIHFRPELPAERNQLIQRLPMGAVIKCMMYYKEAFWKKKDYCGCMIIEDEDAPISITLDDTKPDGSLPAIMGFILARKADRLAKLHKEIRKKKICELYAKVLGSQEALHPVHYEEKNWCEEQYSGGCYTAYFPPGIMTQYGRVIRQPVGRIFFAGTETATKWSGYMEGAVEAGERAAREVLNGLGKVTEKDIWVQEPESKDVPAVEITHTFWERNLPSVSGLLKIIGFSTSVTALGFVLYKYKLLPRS

MAO-B = target: T2, MAO-B (Homo sapiens, UniProt P27338); test: Reversibility study of MAO-B inhibition by dialysis method; type: biochemical
T2 sequence (P27338 1-520): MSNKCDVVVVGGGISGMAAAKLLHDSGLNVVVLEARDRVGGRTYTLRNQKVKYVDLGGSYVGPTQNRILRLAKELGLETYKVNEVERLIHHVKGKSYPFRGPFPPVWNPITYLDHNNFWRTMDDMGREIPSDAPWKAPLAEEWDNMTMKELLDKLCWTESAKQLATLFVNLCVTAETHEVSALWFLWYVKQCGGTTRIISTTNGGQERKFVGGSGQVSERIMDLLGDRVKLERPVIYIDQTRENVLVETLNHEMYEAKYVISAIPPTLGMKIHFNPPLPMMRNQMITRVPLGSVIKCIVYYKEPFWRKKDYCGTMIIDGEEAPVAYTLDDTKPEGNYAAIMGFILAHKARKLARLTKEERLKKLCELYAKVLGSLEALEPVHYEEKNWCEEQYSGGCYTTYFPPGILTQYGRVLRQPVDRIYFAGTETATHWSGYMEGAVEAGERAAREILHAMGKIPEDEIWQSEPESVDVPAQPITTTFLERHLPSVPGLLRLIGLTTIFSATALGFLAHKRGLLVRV
Experimental: The mixture was incubated at 37 °C for 30 min and transferred to dialysis bag (MWCO: 10 000, flattening width: 24 mm, length: 8–10 cm). Then, this dialysis bag was placed in 200 ml PBS for 24 h, and the outer PBS was replaced with fresh at 3 and 7 h, respectively. As for the undialysis group, the mixture was placed at 4 °C for 24 h. After dialysis, the mixtures (40 µL) in the dialysis bag were taken out to measure the catalytic activity, and the test method was similar with the inhibition experiment of MAOs. […] The test compound solution was replaced with PBS buffer at the same volume in the blank group.

[3] = Parallel artificial membrane permeation assay for blood-brain barrier (PAMPA-BBB); type: in vitro ADME
Experimental: Porcine brain lipid solution (4 µL, 20 mg/mL in n-dodecane) was added dropwise to a filter membrane. Then the membrane was placed still at room temperature for 5 min to form an artificial biomembrane. When this bionics membrane was formed, test compound solution (350 µL, 100 µg/mL) was added to the donor well which was over the artificial biomembrane, and the mixture of PBS and Ethanol (200 µL, 70/30, v/v) was added to receptor well which is under the bionics membrane. Then, the “sandwich” was incubated at 25 °C for 18 h. After incubation, 150 µL solution in both donor well and receptor well were taken out and added to a 96-well quartz cuvette, and the absorbance of the mixture at 200–800 nm was measured. The Pe value was calculated according to the formula depicted by the literature.

Oc1cc(OCc2ccc(F)cc2)ccc1-c1nc2ccccc2s1 [3h, 2-(Benzo[d]thiazol-2-yl)-5-((4-fluorobenzyl)oxy)phenol]
ORAC [1]: 2.27 Trolox equivalents and 2.27 ± 0.08 Trolox equivalents
inhibition at 0.5 µM ([2]; 0.5 µM): 7.8%
inhibition at […] ([2]; 2.5 µM): 25.7%
inhibition at 10 µM ([2]; 10.0 µM): 52.5%
inhibition at 10 µM (MAO-A): 39.7 ± 0.54%
MAO-B inhibitory mode (MAO-B; classified by MAO-B catalytic activity in dialysis group): reversible (reversible inhibition: MAO-B catalytic activity ≥ 80%)
MAO-B catalytic activity, undialysis group (MAO-B; test compound 4 × IC50, 4 °C for 24 h without dialysis): 27.6%
MAO-B catalytic activity, dialysis group (MAO-B; test compound 4 × IC50, dialysis 24 h): 80.9%
Prediction of penetration into CNS [3]: CNS+ (High BBB permeation predicted (CNS +) Pe> 3.44)
Pe ([3]; PBS/EtOH (70:30), mean ± SD of three independent experiments): 4.03 ×10⁻⁶ cm/s
Papp at 18 h, 100 µg/mL ([3]; PBS/EtOH (70:30), mean ± SD of three independent experiments, read-out: Pe): 4.03 ± 0.14 ×10⁻⁶ cm/s
